#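 Cells were grown in 96-well plates and exposed to each compound for 48 hours at five concentrations; endpoints were interpolated linearly between bracketing concentrations, or set to the highest concentration if not reached. GI50 = concentration required for 50% inhibition of growth.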 Activity calls are given as the source filed them. Cut-off read from the data, not from the text of the source: active = GI50 up to about 1.1 µM and inactive = higher.
# Legend:
# Test in all cases: NCI anticancer screen, dose series, 48 h
# HCT-15 = test system: HCT-15
# HL-60 = test system: HL-60
# HOP-62 = test system: HOP-62
# K562 = test system: K562
# KM12 = test system: KM12
# M14 = test system: M14
# MDA-MB-231 = test system: MDA-MB-231
# MDA-N = test system: MDA-N
# NCI/ADR-RES = test system: NCI/ADR-RES
# OVCAR-4 = test system: OVCAR-4
# OVCAR-5 = test system: OVCAR-5
# OVCAR-8 = test system: OVCAR-8
# PC-3 = test system: PC-3
# SF-268 = test system: SF-268
# SF-295 = test system: SF-295
# SK-MEL-28 = test system: SK-MEL-28
# TK-10 = test system: TK-10
# U-251 = test system: U-251
# UACC-257 = test system: UACC-257
# NCI-H226 = test system: NCI-H226
Structure (SMILES),GI50 (HCT-15) [µM],GI50 (HL-60),GI50 (HOP-62),GI50 (K562),GI50 (KM12),GI50 (M14),GI50 (MDA-MB-231),GI50 (MDA-N),GI50 (NCI/ADR-RES),GI50 (OVCAR-4),GI50 (OVCAR-5),GI50 (OVCAR-8),GI50 (PC-3),GI50 (SF-268),GI50 (SF-295),GI50 (SK-MEL-28),GI50 (TK-10),GI50 (U-251),GI50 (UACC-257),GI50 (NCI-H226)
Cc1c2ccccc2nc2[nH]c3ccncc3c12,26.5,26.9 µM (inactive),25.6 µM (inactive),51.5 µM (inactive),26.6 µM (inactive),32.8 µM (inactive),78.5 µM (inactive),35 µM (inactive),23.9 µM (inactive),45.6 µM (inactive),35.3 µM (inactive),31.3 µM (inactive),38.3 µM (inactive),11.1 µM (inactive),31.6 µM (inactive),70.6 µM (inactive),19.3 µM (inactive),30.1 µM (inactive),52.1 µM (inactive),–
CC1=C(C(=O)OCCO[N+](=O)[O-])C(c2ccccc2C(F)(F)F)C(C(=O)OC(C)C)=C(C)N1 (configuration not stated),12.2,15.9 µM (inactive),20.6 µM (inactive),3.94 µM (inactive),8.63 µM (inactive),13.1 µM (inactive),10.9 µM (inactive),–,14.3 µM (inactive),12.7 µM (inactive),14.8 µM (inactive),17.7 µM (inactive),3.36 µM (inactive),16.3 µM (inactive),11.8 µM (inactive),16.6 µM (inactive),18.1 µM (inactive),14.6 µM (inactive),11.2 µM (inactive),9.73 µM (inactive)
CC(C)(C)C(=O)N1CCN(C=O)C1=S,53.2,47.3 µM (inactive),> 100 µM (inactive),35.2 µM (inactive),75.9 µM (inactive),31 µM (inactive),> 100 µM (inactive),–,> 100 µM (inactive),> 100 µM (inactive),> 100 µM (inactive),36.5 µM (inactive),> 100 µM (inactive),80.4 µM (inactive),> 100 µM (inactive),50.4 µM (inactive),92 µM (inactive),80.7 µM (inactive),62.7 µM (inactive),> 100 µM (inactive)
Fc1ccc(C(OCCN2CC3CC2CN3)c2ccc(F)cc2)cc1 (configuration not stated),60.5,20.5 µM (inactive),> 100 µM (inactive),36 µM (inactive),39.6 µM (inactive),–,46.8 µM (inactive),–,97.9 µM (inactive),> 100 µM (inactive),–,> 100 µM (inactive),59.2 µM (inactive),> 100 µM (inactive),83.2 µM (inactive),21.8 µM (inactive),32.8 µM (inactive),48.5 µM (inactive),18.3 µM (inactive),59 µM (inactive)
N=c1c2ccccc2nc2oc3cc([N+](=O)[O-])ccc3n12,> 100,–,18.1 µM (inactive),> 100 µM (inactive),> 100 µM (inactive),> 100 µM (inactive),25.1 µM (inactive),> 100 µM (inactive),18.6 µM (inactive),21.3 µM (inactive),28.2 µM (inactive),20.9 µM (inactive),54.2 µM (inactive),27.4 µM (inactive),19.3 µM (inactive),74 µM (inactive),19.6 µM (inactive),15.5 µM (inactive),> 100 µM (inactive),15 µM (inactive)
O=C(/C=C/c1ccc2c(c1)OCO2)NCCc1ccco1,–,–,83.8 µM (inactive),39.7 µM (inactive),> 100 µM (inactive),45.5 µM (inactive),44.8 µM (inactive),> 100 µM (inactive),57.3 µM (inactive),> 100 µM (inactive),> 100 µM (inactive),> 100 µM (inactive),50.8 µM (inactive),> 100 µM (inactive),54.8 µM (inactive),> 100 µM (inactive),65.8 µM (inactive),> 100 µM (inactive),49.8 µM (inactive),90.2 µM (inactive)
O=c1c(-c2ccccc2)c(SCCCN2CCN(c3cccc(Cl)c3)CC2)n(-c2ccccc2)c(=S)n1-c1ccccc1,> 100,> 100 µM (inactive),> 100 µM (inactive),> 100 µM (inactive),46.5 µM (inactive),–,> 100 µM (inactive),–,> 100 µM (inactive),23.3 µM (inactive),> 100 µM (inactive),> 100 µM (inactive),> 100 µM (inactive),–,> 100 µM (inactive),> 100 µM (inactive),> 100 µM (inactive),> 100 µM (inactive),> 100 µM (inactive),> 100 µM (inactive)
O=c1[nH]nc(NNc2ccccc2)c2nnn(C3CCCCC3)c12,96.2,> 100 µM (inactive),> 100 µM (inactive),> 100 µM (inactive),> 100 µM (inactive),> 100 µM (inactive),> 100 µM (inactive),> 100 µM (inactive),> 100 µM (inactive),> 100 µM (inactive),> 100 µM (inactive),88.1 µM (inactive),> 100 µM (inactive),–,> 100 µM (inactive),> 100 µM (inactive),> 100 µM (inactive),> 100 µM (inactive),> 100 µM (inactive),–
COC(=O)c1cc(CNCCc2c[nH]c3ccccc23)on1,> 100,> 100 µM (inactive),> 100 µM (inactive),> 100 µM (inactive),> 100 µM (inactive),> 100 µM (inactive),–,> 100 µM (inactive),> 100 µM (inactive),> 33.8 µM (inactive),> 100 µM (inactive),> 100 µM (inactive),> 100 µM (inactive),> 100 µM (inactive),> 91.8 µM (inactive),> 100 µM (inactive),> 100 µM (inactive),> 100 µM (inactive),> 100 µM (inactive),> 100 µM (inactive)
C/C(=C/C(=O)N(C)c1ccccc1Cl)O[Si](C(C)C)(C(C)C)C(C)C,18.2,–,26.8 µM (inactive),–,32.4 µM (inactive),27.5 µM (inactive),22.4 µM (inactive),21.3 µM (inactive),19.9 µM (inactive),61.2 µM (inactive),18.2 µM (inactive),20.7 µM (inactive),–,21.8 µM (inactive),21.8 µM (inactive),32.8 µM (inactive),33.5 µM (inactive),20 µM (inactive),24.8 µM (inactive),15.8 µM (inactive)
CN(C)Cc1cc(/C=C/C(=O)c2ccc(Cl)c(Cl)c2)cc(CN(C)C)c1O,–,3.9 µM (inactive),15.5 µM (inactive),25.2 µM (inactive),13.1 µM (inactive),13 µM (inactive),7.05 µM (inactive),11.2 µM (inactive),19 µM (inactive),–,12.5 µM (inactive),13.6 µM (inactive),12.4 µM (inactive),10.8 µM (inactive),20.2 µM (inactive),12.5 µM (inactive),12.4 µM (inactive),–,12.1 µM (inactive),–
CCOC(=O)/C=C(\N=P(c1ccccc1)(c1ccccc1)c1ccccc1)C(F)(F)C(F)(F)C(F)(F)C(F)(F)C(F)(F)F,> 100,> 100 µM (inactive),> 100 µM (inactive),> 100 µM (inactive),> 100 µM (inactive),> 100 µM (inactive),> 100 µM (inactive),> 100 µM (inactive),> 100 µM (inactive),> 100 µM (inactive),> 100 µM (inactive),–,> 100 µM (inactive),> 100 µM (inactive),> 100 µM (inactive),> 100 µM (inactive),> 100 µM (inactive),> 100 µM (inactive),> 100 µM (inactive),–
CN(C)S(=O)(=O)n1cnc(CO)c1,> 100,–,> 100 µM (inactive),> 100 µM (inactive),> 100 µM (inactive),> 100 µM (inactive),> 100 µM (inactive),> 100 µM (inactive),> 100 µM (inactive),> 100 µM (inactive),> 100 µM (inactive),–,> 100 µM (inactive),> 100 µM (inactive),> 100 µM (inactive),> 100 µM (inactive),> 100 µM (inactive),> 100 µM (inactive),> 100 µM (inactive),> 100 µM (inactive)
CCCCN(CCCC)C1=Nc2ccccc2-n2c(nnc2C(=O)OCC)C1,–,15.6 µM (inactive),95.1 µM (inactive),16.5 µM (inactive),29.4 µM (inactive),44.3 µM (inactive),38.1 µM (inactive),–,39.2 µM (inactive),61.8 µM (inactive),> 100 µM (inactive),69.3 µM (inactive),17.4 µM (inactive),50.9 µM (inactive),44.7 µM (inactive),82.2 µM (inactive),38.7 µM (inactive),–,17.4 µM (inactive),50.6 µM (inactive)
Cc1cc(C)c(/C=C(\C(=C/c2c(C)cc(C)cc2C)[N+](=O)[O-])[N+](=O)[O-])c(C)c1,–,–,> 100 µM (inactive),> 100 µM (inactive),> 100 µM (inactive),> 100 µM (inactive),> 100 µM (inactive),> 100 µM (inactive),–,> 100 µM (inactive),> 100 µM (inactive),–,> 100 µM (inactive),–,> 100 µM (inactive),> 100 µM (inactive),> 100 µM (inactive),> 100 µM (inactive),> 100 µM (inactive),–
CS(=O)(=O)OCC(CCl)(CCl)CCl,> 100,–,–,> 100 µM (inactive),> 100 µM (inactive),> 100 µM (inactive),> 100 µM (inactive),> 100 µM (inactive),> 100 µM (inactive),> 100 µM (inactive),–,> 100 µM (inactive),> 100 µM (inactive),> 100 µM (inactive),> 100 µM (inactive),> 100 µM (inactive),> 100 µM (inactive),> 100 µM (inactive),> 100 µM (inactive),> 100 µM (inactive)
